Toxic doses and inconclusive results are not listed.
System: BDF1 mice, P388 leukemia ip, median survival T/C
Experiment: NCI In Vivo Anticancer Drug Screen. Data for tumor model P388 Leukemia (intraperitoneal) in B6D2F1 (BDF1) mice
Conditions: endpoint: median survival time, higher = longer survival
Summary of the method: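 Mice carrying the transplantable tumour receive compound or vehicle. Survival is followed in each arm, and the treated measure is divided by the vehicle measure.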

[1] = dose: 6.25 mg/kg/injection, schedule: Q04DX003 (ip), vehicle: saline with Tween-80
[2] = dose: 12.5 mg/kg/injection, schedule: Q04DX003 (ip), vehicle: saline with Tween-80
[3] = dose: 25.0 mg/kg/injection, schedule: Q01DX009 (ip), vehicle: water
[4] = dose: 50.0 mg/kg/injection, schedule: Q01DX009 (ip), vehicle: water
[5] = dose: 50.0 mg/kg/injection, schedule: Q04DX003 (ip), vehicle: water
[6] = dose: 100.0 mg/kg/injection, schedule: Q01DX009 (ip), vehicle: water
[7] = dose: 100.0 mg/kg/injection, schedule: Q04DX003 (ip), vehicle: water
[8] = dose: 200.0 mg/kg/injection, schedule: Q01DX009 (ip), vehicle: water
[9] = dose: 200.0 mg/kg/injection, schedule: Q04DX003 (ip), vehicle: water
[10] = dose: 400.0 mg/kg/injection, schedule: Q01DX009 (ip), vehicle: water
[11] = dose: 400.0 mg/kg/injection, schedule: Q04DX003 (ip), vehicle: water
[12] = dose: 100.0 mg/kg/injection, schedule: Q01DX009 (ip), vehicle: Klucel (hydroxypropylcellulose) (HPC)
[13] = dose: 200.0 mg/kg/injection, schedule: Q01DX009 (ip), vehicle: Klucel (hydroxypropylcellulose) (HPC)
[14] = dose: 400.0 mg/kg/injection, schedule: Q01DX009 (ip), vehicle: Klucel (hydroxypropylcellulose) (HPC)
[15] = dose: 50.0 mg/kg/injection, schedule: Q01DX009 (ip), vehicle: saline with Tween-80
[16] = dose: 100.0 mg/kg/injection, schedule: Q01DX009 (ip), vehicle: saline with Tween-80
[17] = dose: 200.0 mg/kg/injection, schedule: Q01DX009 (ip), vehicle: saline with Tween-80
[18] = dose: 100.0 mg/kg/injection, schedule: Q01DX009 (ip), vehicle: saline
[19] = dose: 100.0 mg/kg/injection, schedule: Q04DX003 (ip), vehicle: saline
[20] = dose: 200.0 mg/kg/injection, schedule: Q01DX009 (ip), vehicle: saline
[21] = dose: 200.0 mg/kg/injection, schedule: Q04DX003 (ip), vehicle: saline

Q: Which T/C (dose: 3.13 mg/kg/injection, schedule: Q04DX003 (ip), vehicle: saline with Tween-80) does the source give for `O=NN(CCCl)C(=O)NC1CCC(=O)NC1=O` (centres undefined) here?
A: 272 % of control

Q: And the T/C (dose: 4.0 mg/kg/injection, schedule: Q04DX003 (ip), vehicle: saline with Tween-80)?
A: 230 % of control

Q: What about the T/C (dose: 6.0 mg/kg/injection, schedule: Q04DX003 (ip), vehicle: saline with Tween-80) of the same molecule?
A: 230 % of control

Q: What about the T/C [1] of the same molecule?
A: 272 % of control

Q: What about the T/C (dose: 9.0 mg/kg/injection, schedule: Q04DX003 (ip), vehicle: gum acacia) of the same molecule?
A: 250 % of control

Q: What about the T/C (dose: 9.0 mg/kg/injection, schedule: Q04DX003 (ip), vehicle: saline with Tween-80) of the same molecule?
A: 230 % of control

Q: And the T/C [2]?
A: 104 % of control

Q: What about the T/C (dose: 20.0 mg/kg/injection, schedule: Q04DX003 (ip), vehicle: gum acacia) of the same molecule?
A: 112 % of control

Q: Which results are given for `Cc1ccc(NC(=O)OCCSCCOC(=O)Nc2ccc(C)cc2)cc1`?
A: T/C (dose: 25.0 mg/kg/injection, schedule: Q04DX003 (ip), vehicle: other): 95 % of control; T/C (dose: 50.0 mg/kg/injection, schedule: Q04DX003 (ip), vehicle: other): 90 % of control; T/C (dose: 100.0 mg/kg/injection, schedule: Q04DX003 (ip), vehicle: other): 90 % of control; T/C (dose: 200.0 mg/kg/injection, schedule: Q04DX003 (ip), vehicle: other): 90 % of control; T/C (dose: 400.0 mg/kg/injection, schedule: Q04DX003 (ip), vehicle: other): 100 % of control

Q: How did the T/C (dose: 50.0 mg/kg/injection, schedule: Q04DX003 (ip), vehicle: saline sonified) turn out when `COc1ccc(C(=O)NN2C(N)=NC(N)=NC2(C)C)cc1` was run?
A: 100 % of control

Q: And the T/C (dose: 100.0 mg/kg/injection, schedule: Q04DX003 (ip), vehicle: saline sonified)?
A: 100 % of control

Q: And the T/C (dose: 200.0 mg/kg/injection, schedule: Q04DX003 (ip), vehicle: saline sonified)?
A: 105 % of control

Q: What does the source list for `COc1cccc2c(=O)cc(C)[nH]c12`?
A: T/C [3]: 107 % of control; T/C [4]: 92 % of control; T/C [5]: 103 % of control; T/C [6]: 101 % of control; T/C [7]: 97 % of control; T/C [8]: 91 % of control; T/C [9]: 106 % of control; T/C [10]: 90 % of control; T/C [11]: 98 % of control

Q: Which results are given for `O=C1CCC2N1CCC1CCCCN12` (centres undefined)?
A: T/C (dose: 6.25 mg/kg/injection, schedule: Q01DX009 (ip), vehicle: water): 98 % of control; T/C (dose: 12.5 mg/kg/injection, schedule: Q01DX009 (ip), vehicle: water): 100 % of control; T/C [3]: 86 % of control; T/C (dose: 25.0 mg/kg/injection, schedule: Q04DX003 (ip), vehicle: water): 107 % of control; T/C [4]: 94 % of control; T/C [5]: 118 % of control; T/C [6]: 91 % of control; T/C [7]: 107 % of control; T/C [9]: 109 % of control

Q: How did the T/C (dose: 100.0 mg/kg/injection, schedule: Q01DX001 (ip), vehicle: Klucel (hydroxypropylcellulose) (HPC)) turn out when `CC1(C)OC(=O)C(=Cc2c(Cl)cccc2Cl)C(=O)O1` was run?
A: 109 % of control

Q: And the T/C [12]?
A: 87 % of control

Q: What about the T/C (dose: 200.0 mg/kg/injection, schedule: Q01DX001 (ip), vehicle: Klucel (hydroxypropylcellulose) (HPC)) of the same molecule?
A: 104 % of control

Q: What about the T/C [13] of the same molecule?
A: 104 % of control

Q: What about the T/C (dose: 400.0 mg/kg/injection, schedule: Q01DX001 (ip), vehicle: Klucel (hydroxypropylcellulose) (HPC)) of the same molecule?
A: 109 % of control

Q: And the T/C [14]?
A: 100 % of control

Q: For `CCSc1ncc(C)c(Cl)n1`, which T/C [6] is on record?
A: 107 % of control

Q: And the T/C [7]?
A: 105 % of control

Q: What about the T/C [8] of the same molecule?
A: 99 % of control

Q: What about the T/C [9] of the same molecule?
A: 107 % of control

Q: What about the T/C [10] of the same molecule?
A: 108 % of control

Q: What about the T/C [11] of the same molecule?
A: 103 % of control

Q: Which results are given for `O=c1[nH]cnc2c1nnn2C1OC(CO)C(O)C1O` (centres undefined)?
A: T/C (dose: 50.0 mg/kg/injection, schedule: Q01DX006 (ip), vehicle: saline): 95 % of control; T/C (dose: 130.0 mg/kg/injection, schedule: Q01DX006 (ip), vehicle: saline): 117 % of control

Q: For `CC(=O)[C@]1(O)Cc2c(O)c3c(c(O)c2[C@@H](OC2CC(N)C(O)C(C)O2)C1)C(=O)c1c(OC(C)C)cccc1C3=O` (some centres undefined), which T/C (dose: 6.25 mg/kg/injection, schedule: Q04DX003 (ip), vehicle: water) is on record?
A: 118 % of control

Q: And the T/C (dose: 12.5 mg/kg/injection, schedule: Q04DX003 (ip), vehicle: water)?
A: 162 % of control

Q: And the T/C [5]?
A: 89 % of control

Q: How did the T/C [12] turn out when `COC(=O)C(Br)C(Br)N1C(=O)c2ccccc2C1=O` (centres undefined) was run?
A: 100 % of control

Q: What about the T/C (dose: 100.0 mg/kg/injection, schedule: Q04DX003 (ip), vehicle: Klucel (hydroxypropylcellulose) (HPC)) of the same molecule?
A: 104 % of control

Q: And the T/C [13]?
A: 104 % of control

Q: What about the T/C (dose: 200.0 mg/kg/injection, schedule: Q04DX003 (ip), vehicle: Klucel (hydroxypropylcellulose) (HPC)) of the same molecule?
A: 100 % of control

Q: And the T/C [14]?
A: 108 % of control

Q: And the T/C (dose: 400.0 mg/kg/injection, schedule: Q04DX003 (ip), vehicle: Klucel (hydroxypropylcellulose) (HPC))?
A: 109 % of control

Q: How did the T/C [15] turn out when `C=CC(C)(C(=O)O)C(C)C` (centres undefined) was run?
A: 101 % of control

Q: And the T/C [16]?
A: 100 % of control

Q: And the T/C [17]?
A: 97 % of control

Q: Which T/C (dose: 50.0 mg/kg/injection, schedule: Q01DX001 (ip), vehicle: saline with Tween-80) does the source give for `O=C(O)c1ccc2cc(O)ccc2c1` here?
A: 100 % of control

Q: And the T/C (dose: 50.0 mg/kg/injection, schedule: Q01DX009 (ip), vehicle: saline)?
A: 116 % of control

Q: And the T/C (dose: 50.0 mg/kg/injection, schedule: Q04DX003 (ip), vehicle: saline)?
A: 109 % of control

Q: What about the T/C (dose: 100.0 mg/kg/injection, schedule: Q01DX001 (ip), vehicle: saline with Tween-80) of the same molecule?
A: 113 % of control

Q: And the T/C [18]?
A: 116 % of control

Q: What about the T/C [19] of the same molecule?
A: 109 % of control

Q: And the T/C (dose: 200.0 mg/kg/injection, schedule: Q01DX001 (ip), vehicle: saline with Tween-80)?
A: 100 % of control

Q: And the T/C [20]?
A: 104 % of control

Q: And the T/C [21]?
A: 100 % of control

Q: Which results are given for `COc1ccc2[nH]c3c(c2c1)CCNC3CC(C)CCC=C(C)C` (centres undefined)?
A: T/C [15]: 93 % of control; T/C [16]: 113 % of control

Q: For `COc1cc([C@@H]2c3cc4c(cc3[C@H](SC(=N)N)[C@H]3COC(=O)[C@H]23)OCO4)cc(OC)c1OC`, which T/C (dose: 1.4 mg/kg/injection, schedule: Q01DX010 (ip), vehicle: carboxymethylcellulose (CMC)) is on record?
A: 105 % of control

Q: What about the T/C (dose: 2.8 mg/kg/injection, schedule: Q01DX010 (ip), vehicle: carboxymethylcellulose (CMC)) of the same molecule?
A: 100 % of control

Q: And the T/C (dose: 5.6 mg/kg/injection, schedule: Q01DX010 (ip), vehicle: carboxymethylcellulose (CMC))?
A: 110 % of control

Q: And the T/C (dose: 18.0 mg/kg/injection, schedule: Q01DX009 (ip), vehicle: Klucel (hydroxypropylcellulose) (HPC))?
A: 152 % of control

Q: What about the T/C (dose: 27.0 mg/kg/injection, schedule: Q01DX009 (ip), vehicle: Klucel (hydroxypropylcellulose) (HPC)) of the same molecule?
A: 171 % of control

Q: What does the source list for `O=C(OCCO)c1ccccc1O`?
A: T/C [18]: 107 % of control; T/C [20]: 115 % of control; T/C (dose: 400.0 mg/kg/injection, schedule: Q01DX009 (ip), vehicle: saline): 100 % of control

Q: How did the T/C [19] turn out when `NNc1nccnc1Cl` was run?
A: 105 % of control

Q: What about the T/C [21] of the same molecule?
A: 103 % of control

Q: Which T/C [1] does the source give for `Clc1ccc(C#Cc2ccc(Cl)cc2)cc1` here?
A: 92 % of control

Q: And the T/C [2]?
A: 92 % of control

Q: And the T/C (dose: 25.0 mg/kg/injection, schedule: Q04DX003 (ip), vehicle: saline with Tween-80)?
A: 96 % of control

Q: What does the source list for `CC(NC(=O)C(C)NC(=O)C(N)CCS(C)(=O)=NP(=O)(O)O)C(=O)O` (centres undefined)?
A: T/C (dose: 12.5 mg/kg/injection, schedule: Q01DX009 (ip), vehicle: saline): 101 % of control; T/C (dose: 25.0 mg/kg/injection, schedule: Q01DX009 (ip), vehicle: saline): 110 % of control

Q: Which results are given for `CCCCOCN(COCCCC)C(C)(C)C`?
A: T/C (dose: 100.0 mg/kg/injection, schedule: Q01DX001 (ip), vehicle: saline): 120 % of control; T/C (dose: 200.0 mg/kg/injection, schedule: Q01DX001 (ip), vehicle: saline): 110 % of control

Q: With `CC(=O)O[C@H]1CC[C@H]2[C@@H]3[C@H](C)CC4=CC(=O)CCC4[C@H]3CC[C@]12C` (some centres undefined) as the molecule, how does the T/C [16] read?
A: 95 % of control

Q: What about the T/C (dose: 100.0 mg/kg/injection, schedule: Q04DX003 (ip), vehicle: saline with Tween-80) of the same molecule?
A: 100 % of control

Q: What about the T/C [17] of the same molecule?
A: 90 % of control

Q: And the T/C (dose: 200.0 mg/kg/injection, schedule: Q04DX003 (ip), vehicle: saline with Tween-80)?
A: 95 % of control

Q: What about the T/C (dose: 400.0 mg/kg/injection, schedule: Q01DX009 (ip), vehicle: saline with Tween-80) of the same molecule?
A: 100 % of control

Q: What about the T/C (dose: 400.0 mg/kg/injection, schedule: Q04DX003 (ip), vehicle: saline with Tween-80) of the same molecule?
A: 100 % of control

Source: PubChem BioAssay AID328 (DTP/NCI, 2004)
